Experimental data as given in patent publication US10233173B2, “Substituted 1,2,3-triazoles as NR2B-selective NMDA modulators” (JANSSEN PHARMACEUTICA NV, priority 2016, dated 2019).

Each molecule was assayed against human GluN1/GluN2B NMDA receptors (Homo sapiens, UniProt Q05586+Q13224) (assay: Cell-based calcium flux (FLIPR) assay on cloned human NR1/NR2B ion channels expressed in mammalian cells). Conditions: standard assay; glutamate at ~EC80; FLIPR calcium flux.
human GluN1/GluN2B NMDA receptors, sequence (Q13224 27-1484, other chains not shown): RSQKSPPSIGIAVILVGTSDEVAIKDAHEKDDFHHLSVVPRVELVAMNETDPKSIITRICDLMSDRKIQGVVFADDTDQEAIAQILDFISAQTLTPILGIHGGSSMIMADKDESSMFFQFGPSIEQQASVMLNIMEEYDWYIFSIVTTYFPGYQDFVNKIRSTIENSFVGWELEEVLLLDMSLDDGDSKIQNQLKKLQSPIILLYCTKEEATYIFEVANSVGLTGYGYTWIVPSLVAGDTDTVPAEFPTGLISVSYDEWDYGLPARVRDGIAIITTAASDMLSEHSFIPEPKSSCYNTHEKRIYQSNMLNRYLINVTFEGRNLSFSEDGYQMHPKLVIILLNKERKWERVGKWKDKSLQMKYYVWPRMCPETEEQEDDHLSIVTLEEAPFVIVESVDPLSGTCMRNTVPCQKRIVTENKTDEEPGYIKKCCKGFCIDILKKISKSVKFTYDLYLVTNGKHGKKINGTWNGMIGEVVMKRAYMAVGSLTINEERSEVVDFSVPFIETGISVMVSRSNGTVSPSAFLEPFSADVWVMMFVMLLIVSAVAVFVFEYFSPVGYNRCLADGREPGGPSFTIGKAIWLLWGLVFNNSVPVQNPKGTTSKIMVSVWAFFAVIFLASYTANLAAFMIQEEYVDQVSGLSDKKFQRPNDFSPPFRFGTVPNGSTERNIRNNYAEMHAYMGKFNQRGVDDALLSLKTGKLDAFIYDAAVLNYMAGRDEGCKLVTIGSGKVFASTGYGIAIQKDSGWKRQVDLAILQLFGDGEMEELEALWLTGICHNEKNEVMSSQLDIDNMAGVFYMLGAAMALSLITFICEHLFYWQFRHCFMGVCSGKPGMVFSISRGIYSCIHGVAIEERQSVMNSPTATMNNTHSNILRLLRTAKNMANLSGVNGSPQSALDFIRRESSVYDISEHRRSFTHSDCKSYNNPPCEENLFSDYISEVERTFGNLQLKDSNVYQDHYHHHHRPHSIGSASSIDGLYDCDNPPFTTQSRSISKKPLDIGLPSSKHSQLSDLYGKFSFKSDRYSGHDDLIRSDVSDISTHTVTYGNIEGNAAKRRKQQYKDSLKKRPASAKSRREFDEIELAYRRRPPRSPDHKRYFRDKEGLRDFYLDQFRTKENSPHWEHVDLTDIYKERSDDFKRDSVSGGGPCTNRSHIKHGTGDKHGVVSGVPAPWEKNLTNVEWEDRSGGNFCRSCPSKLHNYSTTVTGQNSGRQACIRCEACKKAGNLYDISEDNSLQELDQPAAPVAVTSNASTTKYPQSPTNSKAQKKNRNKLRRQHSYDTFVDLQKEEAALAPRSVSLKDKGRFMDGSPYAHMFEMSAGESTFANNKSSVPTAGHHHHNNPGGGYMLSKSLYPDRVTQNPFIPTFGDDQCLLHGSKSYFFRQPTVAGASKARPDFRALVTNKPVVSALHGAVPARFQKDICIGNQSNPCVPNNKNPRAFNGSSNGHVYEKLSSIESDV
Protocol: Effects of Test Articles on Cloned Human NR1/NR2B Ion Channels Expressed in Mammalian Cells
NMDA receptors are ion channels that are highly permeable to Ca^2+ ions, rendering it possible to monitor NMDA receptor function using cell-based calcium flux assay. In this assay, co-agonists glutamate and glycine are added to cells heterologously expressing human GluN1/GluN2B NMDA receptors to initiate cellular Ca^2+ influx. The time course of the changes in intracellular calcium is measured using a fluorescent dye and a FLIPR (Fluorometric Imaging Plate Reader) device.
Twenty four hours before measurements, the expression of the NMDA receptors in the stable cell line is induced with Tet-On inducible system in the presence of a non-selective NMDA receptor blocker. On the day of the experiment, cell culture media is carefully washed and the cells are loaded with Calcium 5 Dye Kit (Molecular Devices) in dye loading buffer containing 149 mM NaCl, 4 mM KCl, 2 mM CaCl2, and 1.5 mM MgCl2, 10 mM HEPES and 5 mM D-glucose; pH 7.4. After 1 h incubation at the room temperature, the dye is washed away with the assay buffer (149 mM NaCl (standard assay) or 150 mM (HTS assay), 4 mM KCl (standard assay) or 3 mM (HTS assay), 2 mM CaCl2, 0.01 mM EDTA, 10 mM HEPES and 5 mM D-glucose; pH 7.4) In the FLIPR TETRA reader, various concentrations of the test compounds are added to the cells for 5 min while fluorescence is monitored to detect potential agonist activity. Next, co-agonists, glutamate and glycine are added for another 5 minutes. The concentration of glutamate corresponding to ˜EC80 (standard assay) or EC40 (HTS assay) is used to maximize the assay's signal window or the ability to detect NMDA receptor antagonists and negative allosteric modulators, respectively. A saturating concentration (10 μM) of glycine is also present in the assay. […] The fluorescent signal in the presence of test compounds is quantified and normalized to the signal defined by the appropriate control wells.
`COCc1ccnc(OCc2cn(-c3ccc(Cl)c(C(F)F)c3)nn2)n1` [Example 627, 2-[[1-[4-Chloro-3-(difluoromethyl)phenyl]triazol-4-yl]methoxy]-4-(methoxymethyl)pyrimidine] showed an IC50 of 0.038 µM.
`CC(F)(F)c1cc(-n2cc(COc3nccc(N4CCCC4)n3)nn2)ccc1Cl` [Example 553, 2-[[1-[4-Chloro-3-(1,1-difluoroethyl)phenyl]triazol-4-yl]methoxy]-4-pyrrolidin-1-yl-pyrimidine] showed an IC50 of 0.043 µM.
Molecule `Fc1ccc(-n2cc(COc3ncccn3)nn2)cc1Cl` [Example 619, 2-[[1-(3-Chloro-4-fluoro-phenyl)triazol-4-yl]methoxy]pyrimidine] has an IC50 of 0.217 µM.
`Fc1cccc(OCc2cn(-c3ccc(Cl)c(OC(F)F)c3)nn2)n1` [Example 394, 2-[[1-[4-Chloro-3-(difluoromethoxy)phenyl]triazol-4-yl]methoxy]-6-fluoro-pyridine] showed an IC50 of 0.437 µM.
In the case of `Cc1cnc(OCc2cn(-c3cc(C)ccn3)nn2)nc1` [Example 662, 5-Methyl-2-[[1-(4-methyl-2-pyridyl)triazol-4-yl]methoxy]pyrimidine], the IC50 was over 2.99 µM.
Molecule `CNc1nc(OCc2cn(-c3ccc(F)c(C(F)F)c3)nn2)ncc1F` [Example 414, 2-[[1-[3-(Difluoromethyl)-4-fluoro-phenyl]triazol-4-yl]methoxy]-5-fluoro-N-methyl-pyrimidin-4-amine] has an IC50 of 0.122 µM.
With `Cc1nc(OCc2nnn(-c3ccc(F)c(C(C)(F)F)c3)c2C)ncc1Cl` [Example 596, 5-Chloro-2-[[1-[3-(1,1-difluoroethyl)-4-fluoro-phenyl]-5-methyl-triazol-4-yl]methoxy]-4-methyl-pyrimidine] the IC50 was 0.601 µM.
`Fc1ccc(-n2cc(COc3ncc(N4CC(F)(F)C4)cn3)nn2)cc1C(F)F` [Example 419, 5-(3,3-Difluoroazetidin-1-yl)-2-((1-(3-(difluoromethyl)-4-fluorophenyl)-1H-1,2,3-triazol-4-yl)methoxy)pyrimidine] gave an IC50 of 0.029 µM.
Work on `CC(F)(F)c1cc(-n2cc(COc3ncc(C(F)(F)F)cn3)nn2)ccc1Cl` [Example 537, 2-[[1-[4-Chloro-3-(1,1-difluoroethyl)phenyl]triazol-4-yl]methoxy]-5-(trifluoromethyl)pyrimidine] yielded an IC50 of 0.016 µM.
`OCc1ccnc(OCc2cn(-c3ccc(F)c(OC(F)F)c3)nn2)n1` [Example 498, [2-[[1-[3-(Difluoromethoxy)-4-fluoro-phenyl]triazol-4-yl]methoxy]pyrimidin-4-yl]methanol] was tested, and the IC50 was 0.019 µM.
Work on `COCc1ccnc(OCc2cn(-c3ccc(F)c(OC(F)F)c3)nn2)n1` [Example 499, 2-[[1-[3-(Difluoromethoxy)-4-fluoro-phenyl]triazol-4-yl]methoxy]-4-(methoxymethyl)pyrimidine] yielded an IC50 of 0.016 µM.
Work on `Fc1ccc(-n2cc(COc3ncc(N4CC(F)(F)C4)cn3)nn2)cc1OC(F)F` [Example 508, 5-(3,3-Difluoroazetidin-1-yl)-2-[[1-[3-(difluoromethoxy)-4-fluoro-phenyl]triazol-4-yl]methoxy]pyrimidine] yielded an IC50 of 0.019 µM.
With `CNc1nc(OCc2cn(-c3ccc(F)c(OC(F)F)c3)nn2)ncc1F` [Example 518, 2-[[1-[3-(Difluoromethoxy)-4-fluoro-phenyl]triazol-4-yl]methoxy]-5-fluoro-N-methyl-pyrimidin-4-amine] the IC50 was 0.092 µM.
`Fc1ccc(-n2cc(COc3cnccn3)nn2)cc1C(F)(F)F` [Example 434, 2-[[1-[4-Fluoro-3-(trifluoromethyl)phenyl]triazol-4-yl]methoxy]pyrazine] gave an IC50 of 6.39 µM.
`Fc1ccc(-n2cc(COc3ncc(N4CC(F)C4)cn3)nn2)cc1C(F)(F)F` [Example 455, 2-((1-(4-Fluoro-3-(trifluoromethyl)phenyl)-1H-1,2,3-triazol-4-yl)methoxy)-5-(3-fluoroazetidin-1-yl)pyrimidine] gave an IC50 of 0.034 µM.
Work on `Fc1ccc(-n2cc(COc3cnc(-c4cccs4)cn3)nn2)cc1OC(F)F` [Example 397, 2-[[1-[3-(Difluoromethoxy)-4-fluoro-phenyl]triazol-4-yl]methoxy]-5-(2-thienyl)pyrazine] yielded an IC50 of 10.7 µM.
`Cc1cnc(OCc2cn(-c3cc(C)c(F)cc3F)nn2)nc1` [Example 654, 2-[[1-(2,4-Difluoro-5-methyl-phenyl)triazol-4-yl]methoxy]-5-methyl-pyrimidine] showed an IC50 of 0.979 µM.
Work on `Cc1nc(OCc2cn(-c3ccc(F)c(C)c3F)nn2)ncc1Cl` [Example 650, 5-Chloro-2-[[1-(2,4-difluoro-3-methyl-phenyl)triazol-4-yl]methoxy]-4-methyl-pyrimidine] yielded an IC50 of 0.005 µM.
Molecule `CC(F)(F)c1cc(-n2cc(COc3ncc(CO)cn3)nn2)ccc1F` [Example 571, [2-[[1-[3-(1,1-difluoroethyl)-4-fluoro-phenyl]triazol-4-yl]methoxy]pyrimidin-5-yl]methanol] has an IC50 of 0.021 µM.
Work on `Fc1ccc(-n2cc(COc3nccc(-c4ccco4)n3)nn2)cc1C(F)F` [Example 424, 2-[[1-[3-(Difluoromethyl)-4-fluoro-phenyl]triazol-4-yl]methoxy]-4-(2-furyl)pyrimidine] yielded an IC50 of 0.141 µM.

Same assay, conditions: standard assay; human GluN1/GluN2B, calcium flux (FLIPR), glutamate ~EC80
`Cc1ccccc1-n1cc(COc2ncccn2)nn1` [Example 236, 2-[[1-(o-Tolyl)triazol-4-yl]methoxy]pyrimidine] was tested, and the IC50 was over 10 µM.
`Cc1cnc(OCc2cn(-c3ccc(OC(F)(F)F)cc3)nn2)nc1` [Example 339, 5-Methyl-2-[[1-[4-(trifluoromethoxy)phenyl]triazol-4-yl]methoxy]pyrimidine] gave an IC50 of 1.13 µM.
`Cc1cnc(OCc2cn(-c3cccc(C)n3)nn2)nc1` [Example 174, 5-Methyl-2-[[1-(6-methyl-2-pyridyl)triazol-4-yl]methoxy]pyrimidine] gave an IC50 of over 2.99 µM.
Work on `Cc1nc(OCc2cn(-c3cccc(C(C)(F)F)c3)nn2)ncc1Cl` [Example 312, 5-Chloro-2-[[1-[3-(1,1-difluoroethyl)phenyl]triazol-4-yl]methoxy]-4-methyl-pyrimidine] yielded an IC50 of 0.004 µM.
Work on `Fc1cnc(OCc2cn(-c3ccc(F)c(C(F)(F)F)c3)nn2)nc1` [Example 84, 5-Fuoro-2-[[1-[4-fluoro-3-(trifluoromethyl)phenyl]triazol-4-yl]methoxy]pyrimidine] yielded an IC50 of 0.072 µM.
In the case of `CC(F)(F)c1cccc(-n2cc(COc3ncc(CO)cn3)nn2)c1` [Example 298, [2-[[1-[3-(1,1-Difluoroethyl)phenyl]triazol-4-yl]methoxy]pyrimidin-5-yl]methanol], the IC50 was 0.034 µM.
Molecule `Fc1ccc(-n2cc(CNc3ccccn3)nn2)cc1C(F)F` [Example 215, N-((1-(3-(Difluoromethyl)-4-fluorophenyl)-1H-1,2,3-triazol-4-yl)methyl)pyridin-2-amine] has an IC50 of 0.986 µM.
`COc1cnc(O[C@H](C)c2cn(-c3ccc(Cl)c(OC(F)F)c3)nn2)nc1` [Example 377, 2-[(1R)-1-[1-[4-Chloro-3-(difluoromethoxy)phenyl]triazol-4-yl]ethoxy]-5-methoxy-pyrimidine] was tested, and the IC50 was 0.01 µM.
`COc1cnc(OCc2cn(-c3cccc(F)c3)nn2)nc1` [Example 230, 2-[[1-(3-Fluorophenyl)triazol-4-yl]methoxy]-5-methoxy-pyrimidine] was tested, and the IC50 was 0.275 µM.
In the case of `Cc1cnc(OCc2cn(-c3ccc(F)c(C(C)(F)F)c3)nn2)nc1` [Example 77, 2-[[1-[3-(1,1-Difluoroethyl)-4-fluoro-phenyl]triazol-4-yl]methoxy]-5-methyl-pyrimidine], the IC50 was 0.004 µM.
Work on `Cc1nc(NCc2cn(-c3ccc(F)c(C(F)F)c3)nn2)ncc1Cl` [Example 218, 5-Chloro-N-((1-(3-(difluoromethyl)-4-fluorophenyl)-1H-1,2,3-triazol-4-yl)methyl)-4-methylpyrimidin-2-amine] yielded an IC50 of 0.011 µM.
In the case of `Cc1ccnc(OCc2cn(-c3cccc(OC(F)(F)F)c3)nn2)n1` [Example 347, 4-Methyl-2-[[1-[3-(trifluoromethoxy)phenyl]triazol-4-yl]methoxy]pyrimidine], the IC50 was 0.137 µM.
Work on `Cc1cnc(OC(C)c2cn(-c3ccc(Cl)c(OC(F)F)c3)nn2)nc1` (single isomer, unassigned) [Example 58, (S*)-2-[1-[1-[4-Chloro-3-(difluoromethoxy)phenyl]triazol-4-yl]ethoxy]-5-methyl-pyrimidine] yielded an IC50 of 0.007 µM.
`CCc1cnc(OCc2cn(-c3ccc(Cl)c(OC(F)F)c3)nn2)nc1` [Example 27, 2-[[1-[4-Chloro-3-(difluoromethoxy)phenyl]triazol-4-yl]methoxy]-5-ethyl-pyrimidine] was tested, and the IC50 was 0.009 µM.
`FC(F)(F)Oc1cccc(-n2cc(COc3ncccn3)nn2)c1` [Example 341, 2-[[1-[3-(Trifluoromethoxy)phenyl]triazol-4-yl]methoxy]pyrimidine] was tested, and the IC50 was 0.538 µM.
For `Cc1cnc(OCc2cn(-c3cc(C)cc(C)c3)nn2)nc1` [Example 364, 2-[[1-(3,5-Dimethylphenyl)triazol-4-yl]methoxy]-5-methyl-pyrimidine], the IC50 was 0.027 µM.
